Measured values from patent publication US9409905B2, “Antibacterial compounds and methods for use” (PTC THERAPEUTICS, INC., priority 2011, dated 2016).
Converted amounts (≈) assume the structure as drawn.

Key:
[1] = system: Escherichia coli (E. coli) BAS849; assay: Antibacterial activity, microbroth dilution MIC (Table 1); format: cell-based; conditions: microbroth dilution, super sensitive Gram-negative E. coli BAS849, read-out: MIC, BAS849
In short: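 MIC (μg/mL) is taken as the lowest concentration with no macroscopically visible growth. Strains tested by microbroth dilution: Gram-positive S. aureus 29213, control Gram-negative E. coli 25922, and super-sensitive E. coli BAS849.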

[2] = system: Staphylococcus aureus (S. aureus) 29213; assay: as above; format: cell-based; conditions: microbroth dilution, Gram-positive S. aureus 29213, read-out: MIC, 29213
In short: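 Lowest concentration stopping macroscopically visible growth under test conditions, by broth microdilution, defines the MIC (μg/mL).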

E. coli 25922 = assay: as above; format: cell-based, Escherichia coli; conditions: Escherichia coli; microbroth dilution; control Gram-negative E. coli 25922 strain; read-out: MIC, 25922
In short: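 Microbroth dilution was used. MIC, in μg/mL, is the lowest drug concentration preventing macroscopically visible growth under the test conditions.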

E. coli LZ3111 = assay: Antibacterial activity, MIC, quinolone resistant strain (Table 2); format: cell-based; conditions: Escherichia coli, LZ3111, read-out: MIC LZ3111
In short: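 Broth microdilution. Read-out: MIC in μg/mL, taken as lowest concentration with no macroscopically visible growth.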

CCc1c(-c2ccc3c(c2)cc(CNC2CN(C)C2)n3C)[nH]c(=O)c(C(=O)O)c1O.Cl.Cl [Cpd 246, 5-ethyl-4-hydroxy-6-(1-methyl-2-((1-methylazetidin-3-ylamino)methyl)-1H-indol-5-yl)-2-oxo-1,2-dihydropyridine-3-carboxylic acid dihydrochloride]
MIC [1]: 1 to 3.5 µg/mL | MIC [2]: 12.5 to 150 µg/mL | MIC (E. coli 25922): 12.5 to 150 µg/mL | MIC (E. coli LZ3111): 3.5 to 12.5 µg/mL

CCc1cc(C(=O)O)c(=O)[nH]c1-c1ccc2c(c1)c(C(N)=O)cn2C [Cpd 73, 6-(3-carbamoyl-1-methyl-1H-indol-5-yl)-5-ethyl-2-oxo-1,2-dihydropyridine-3-carboxylic acid]
MIC [1]: 12.5 to 150 µg/mL (≈ 36.8 to 442 µM) | MIC [2]: 12.5 to 150 µg/mL (≈ 36.8 to 442 µM) | MIC (E. coli 25922): 12.5 to 150 µg/mL (≈ 36.8 to 442 µM) | MIC (E. coli LZ3111): 12.5 to 150 µg/mL (≈ 36.8 to 442 µM)

CCc1c(-c2ccc3c(c2)cc(CN2CCN(C(C)=O)CC2)n3C)[nH]c(=O)c(C(=O)O)c1O [Cpd 175, 6-(2-((4-acetylpiperazin-1-yl)methyl)-1-methyl-1H-indol-5-yl)-5-ethyl-4-hydroxy-2-oxo-1,2-dihydropyridine-3-carboxylic acid]
MIC [1]: < 1 µg/mL | MIC [2]: 1 to 3.5 µg/mL (≈ 2.21 to 7.73 µM) | MIC (E. coli 25922): 3.5 to 12.5 µg/mL (≈ 7.73 to 27.6 µM) | MIC (E. coli LZ3111): 12.5 to 150 µg/mL (≈ 27.6 to 331 µM)

CC(C)c1c(-c2ccc3c(c2)cc(CN2CCC2)n3C)[nH]c(=O)c(C(=O)O)c1O [Cpd 320, 6-(2-(azetidin-1-ylmethyl)-1-methyl-1H-indol-5-yl)-4-hydroxy-5-isopropyl-2-oxo-1,2-dihydropyridine-3-carboxylic acid]
MIC [1]: < 1 µg/mL | MIC [2]: 3.5 to 12.5 µg/mL (≈ 8.85 to 31.6 µM) | MIC (E. coli 25922): 1 to 3.5 µg/mL (≈ 2.53 to 8.85 µM) | MIC (E. coli LZ3111): 12.5 to 150 µg/mL (≈ 31.6 to 379 µM)

CCc1c(-c2ccc3c(c2)cc(CNC(C)c2cccnc2)n3C)[nH]c(=O)c(C(=O)O)c1O.Cl (stereo not drawn) [Cpd 242, 5-ethyl-4-hydroxy-6-(1-methyl-2-((1-(pyridin-3-yl)ethylamino)methyl)-1H-indol-5-yl)-2-oxo-1,2-dihydropyridine-3-carboxylic acid hydrochloride]
MIC [1]: < 1 µg/mL | MIC [2]: 1 to 3.5 µg/mL | MIC (E. coli 25922): 1 to 3.5 µg/mL | MIC (E. coli LZ3111): 12.5 to 150 µg/mL

CCc1c(-c2ccc3c(c2)cc(CN(C)C)n3C)[nH]c(=O)c(C(=O)O)c1N [Cpd 330, 4-amino-6-(2-((dimethylamino)methyl)-1-methyl-1H-indol-5-yl)-5-ethyl-2-oxo-1,2-dihydropyridine-3-carboxylic acid]
MIC [1]: < 1 µg/mL | MIC [2]: 12.5 to 150 µg/mL (≈ 33.9 to 407 µM) | MIC (E. coli 25922): 3.5 to 12.5 µg/mL (≈ 9.5 to 33.9 µM) | MIC (E. coli LZ3111): 12.5 to 150 µg/mL (≈ 33.9 to 407 µM)

CCc1c(-c2ccc3c(c2)cc(CNCCNC)n3C)[nH]c(=O)c(C(=O)O)c1O [Cpd 204, 5-ethyl-4-hydroxy-6-(1-methyl-2-((2-(methylamino)ethylamino)methyl)-1H-indol-5-yl)-2-oxo-1,2-dihydropyridine-3-carboxylic acid]
MIC [1]: 1 to 3.5 µg/mL (≈ 2.51 to 8.78 µM) | MIC [2]: 12.5 to 150 µg/mL (≈ 31.4 to 376 µM) | MIC (E. coli 25922): 3.5 to 12.5 µg/mL (≈ 8.78 to 31.4 µM) | MIC (E. coli LZ3111): 12.5 to 150 µg/mL (≈ 31.4 to 376 µM)

CCc1cc(C(=O)O)c(=O)[nH]c1-c1ccc2c(c1)cc(CN1CC3CCCNC3C1)n2C (stereo not drawn) [Cpd 136, 5-ethyl-6-(1-methyl-2-((tetrahydro-1H-pyrrolo[3,4-b]pyridin-6(2H,7H,7aH)-yl)methyl)-1H-indol-5-yl)-2-oxo-1,2-dihydropyridine-3-carboxylic acid]
MIC [1]: 1 to 3.5 µg/mL (≈ 2.3 to 8.05 µM) | MIC [2]: 12.5 to 150 µg/mL (≈ 28.8 to 345 µM) | MIC (E. coli 25922): 3.5 to 12.5 µg/mL (≈ 8.05 to 28.8 µM) | MIC (E. coli LZ3111): 12.5 to 150 µg/mL (≈ 28.8 to 345 µM)

CCc1c(-c2ccc3c(c2)cc(CN2CCC(c4ccncc4)C2)n3C)[nH]c(=O)c(C(=O)O)c1O (stereo not drawn) [Cpd 268, 5-ethyl-4-hydroxy-6-(1-methyl-2-((3-(pyridin-4-yl)pyrrolidin-1-yl)methyl)-1H-indol-5-yl)-2-oxo-1,2-dihydropyridine-3-carboxylic acid]
MIC [1]: < 1 µg/mL | MIC [2]: 3.5 to 12.5 µg/mL (≈ 7.41 to 26.5 µM) | MIC (E. coli 25922): 3.5 to 12.5 µg/mL (≈ 7.41 to 26.5 µM) | MIC (E. coli LZ3111): 12.5 to 150 µg/mL (≈ 26.5 to 317 µM)

CCc1cc(C(=O)O)c(=O)[nH]c1-c1cc2cc(C(=O)O)n(C)c2cn1 [Cpd 54, 5-(5-carboxy-3-ethyl-6-oxo-1,6-dihydropyridin-2-yl)-1-methyl-1H-pyrrolo[2,3-c]pyridine-2-carboxylic acid]
MIC [1]: 1 to 3.5 µg/mL (≈ 2.93 to 10.3 µM) | MIC [2]: 12.5 to 150 µg/mL (≈ 36.6 to 439 µM) | MIC (E. coli 25922): 12.5 to 150 µg/mL (≈ 36.6 to 439 µM) | MIC (E. coli LZ3111): 12.5 to 150 µg/mL (≈ 36.6 to 439 µM)

CCc1c(-c2ccc3c(c2)cc(CN2CCCCC2CCOC)n3C)[nH]c(=O)c(C(=O)O)c1O (stereo not drawn) [Cpd 259, 5-ethyl-4-hydroxy-6-(2-((2-(2-methoxyethyl)piperidin-1-yl)methyl)-1-methyl-1H-indol-5-yl)-2-oxo-1,2-dihydropyridine-3-carboxylic acid]
MIC [1]: < 1 µg/mL | MIC [2]: 3.5 to 12.5 µg/mL (≈ 7.49 to 26.7 µM) | MIC (E. coli 25922): 3.5 to 12.5 µg/mL (≈ 7.49 to 26.7 µM) | MIC (E. coli LZ3111): 12.5 to 150 µg/mL (≈ 26.7 to 321 µM)

CCc1cc(C(=O)O)c(=O)[nH]c1-c1ccc2c(c1)cc(CN1C[C@H]3CC[C@@H](N(C)C)[C@H]3C1)n2C [Cpd 147, 6-(2-(((3aR,4R,6aS)-4-(dimethylamino)hexahydrocyclopenta[c]pyrrol-2(1H)-yl)methyl)-1-methyl-1H-indol-5-yl)-5-ethyl-2-oxo-1,2-dihydropyridine-3-carboxylic acid]
MIC [1]: < 1 µg/mL | MIC [2]: 12.5 to 150 µg/mL (≈ 27 to 324 µM) | MIC (E. coli 25922): < 1 µg/mL | MIC (E. coli LZ3111): 12.5 to 150 µg/mL (≈ 27 to 324 µM)
